Data on 90 compounds can be found in ChEMBL document CHEMBL3046571, “QSAR of 2,4-diphenyl-1,3-oxazolines for ovicidal activity against the two-spotted spider mite Tetranychus urticae” (2006).

The test system of this assay is Tetranychus urticae. Kind of assay: Acaricidal activity against Tetranychus urticae (two-spotted spider mite) in compound treated kidney bean leaf assessed as mortality of egg at 24 degC measured after 1 week. In kind it is functional. As to conditions: 168 h.

As a reminder, the LC50 is the concentration lethal to half of the exposed cells or organisms. For `CCOc1cccc(C2COC(c3c(F)cccc3F)=N2)c1` (stereo not given), the LC50 was 16.6 µM. Turning to `CCOc1cc(Br)ccc1C1COC(c2c(F)cccc2F)=N1` (stereo not given), the LC50 is 1.32 µM. Next, `Cc1ccc(C2COC(c3c(F)cccc3F)=N2)cc1C` (stereo not given): 17.4 µM; `CCCCCCc1ccc(C2COC(c3c(F)cccc3F)=N2)cc1F` (stereo not given): 1.38 µM; `CCCCCCc1ccc(C2COC(c3c(F)cccc3F)=N2)cc1Cl` (stereo not given): 1.32 µM. For the compound `Fc1ccc(C2COC(c3c(F)cccc3F)=N2)cc1F` (stereo not given), the LC50 is 1.7 µM. Take `Fc1ccc(C2COC(c3c(F)cccc3F)=N2)cc1Cl` (stereo not given): the LC50 was 1.62 µM. Turning to `Fc1cc(C2COC(c3c(F)cccc3F)=N2)ccc1Cl` (stereo not given), the median lethal concentration (LC50) was 0.162 µM. Next, `Fc1cccc(F)c1C1=NC(c2ccc(Cl)c(Cl)c2)CO1` (stereo not given): 1.51 µM; `CCOc1cc(C(C)C)ccc1C1COC(c2c(F)cccc2F)=N1` (stereo not given): 0.145 µM. Take `CCCOc1cc(C(C)C)ccc1C1COC(c2c(F)cccc2F)=N1` (stereo not given): the LC50 was 0.00138 µM. For the compound `COc1cc(C(C)(C)C)ccc1C1COC(c2c(F)cccc2F)=N1` (stereo not given), the LC50 is 0.0144 µM. With `CCCOc1cc(C(C)(C)C)ccc1C1COC(c2c(F)cccc2F)=N1` (stereo not given), the 50% lethal concentration (LC50) was 0.0135 µM. The result for `CCCCOc1cc(C(C)(C)C)ccc1C1COC(c2c(F)cccc2F)=N1` (stereo not given) reads 0.129 µM; that for `CCCCCCOc1cc(C(C)(C)C)ccc1C1COC(c2c(F)cccc2F)=N1` (stereo not given), 1.2 µM.

Turning to `CCCCCc1ccc(C2COC(c3c(F)cccc3F)=N2)c(OCC)c1` (stereo not given), the LC50 was 0.00135 µM. Turning to `CCCCCc1ccc(C2COC(c3c(F)cccc3F)=N2)c(OCCC)c1` (stereo not given), the LC50 was 0.0129 µM. With `CCCCCCCCc1ccc(C2COC(c3c(F)cccc3F)=N2)c(OC)c1` (stereo not given), the LC50 was 0.126 µM. On to `CCCCCCCCCc1ccc(C2COC(c3c(F)cccc3F)=N2)c(OC)c1` (stereo not given), for which the LC50 is 0.012 µM. Regarding `CCCCCCCCCCc1ccc(C2COC(c3c(F)cccc3F)=N2)c(OC)c1` (stereo not given), the LC50 is 0.117 µM. As to `CCc1ccc(C2COC(c3c(F)cccc3F)=N2)c(F)c1` (stereo not given), the LC50 is 1.62 µM. Consider `CCCCCCc1ccc(C2COC(c3c(F)cccc3F)=N2)c(F)c1` (stereo not given), for which the LC50 is 0.00138 µM. Consider `CCCCCCCc1ccc(C2COC(c3c(F)cccc3F)=N2)c(F)c1` (stereo not given), for which the LC50 was 0.00132 µM. For `CCCCCCCCc1ccc(C2COC(c3c(F)cccc3F)=N2)c(F)c1` (stereo not given), the LC50 was 0.00129 µM. Take `CCCCCCCCCCc1ccc(C2COC(c3c(F)cccc3F)=N2)c(F)c1` (stereo not given): the LC50 was 0.012 µM.

In the case of `CCCCCCCCCCCCc1ccc(C2COC(c3c(F)cccc3F)=N2)c(F)c1` (stereo not given), the LC50 was 0.112 µM.

On to `CCc1ccc(C2COC(c3c(F)cccc3F)=N2)c(Cl)c1` (stereo not given), for which the LC50 was 0.0155 µM.

As for `CC(C)Cc1ccc(C2COC(c3c(F)cccc3F)=N2)c(Cl)c1` (stereo not given), the LC50 is 0.00145 µM. Next, `CCCCCCc1ccc(C2COC(c3c(F)cccc3F)=N2)c(Cl)c1` (stereo not given): 0.00132 µM.

In the case of `CCCCCCCCc1ccc(C2COC(c3c(F)cccc3F)=N2)c(Cl)c1` (stereo not given), the LC50 was 0.00123 µM.

Consider `CCCCCCCCCCc1ccc(C2COC(c3c(F)cccc3F)=N2)c(Cl)c1` (stereo not given), for which the LC50 is 1.15 µM.

Take `CCCCCCCCCCCCc1ccc(C2COC(c3c(F)cccc3F)=N2)c(Cl)c1` (stereo not given): the LC50 is 1.07 µM. The result for `COc1cc(F)ccc1C1COC(c2c(F)cccc2F)=N1` (stereo not given) reads 1.62 µM. As for `CCOc1cc(F)ccc1C1COC(c2c(F)cccc2F)=N1` (stereo not given), the LC50 was 0.0155 µM. `CCCCOc1cc(F)ccc1C1COC(c2c(F)cccc2F)=N1` (stereo not given): the LC50 is 0.00145 µM. As for `Fc1ccc(C2COC(c3c(F)cccc3F)=N2)c(F)c1` (stereo not given), the 50% lethal concentration (LC50) was 0.17 µM. For the compound `Fc1ccc(C2COC(c3c(F)cccc3F)=N2)c(Cl)c1` (stereo not given), the LC50 was 1.62 µM. Consider `Cc1cc(Cl)ccc1C1COC(c2c(F)cccc2F)=N1` (stereo not given), for which the LC50 is 1.62 µM. With `COc1cc(Cl)ccc1C1COC(c2c(F)cccc2F)=N1` (stereo not given), the LC50 is 1.55 µM. Next, `CCOc1cc(Cl)ccc1C1COC(c2c(F)cccc2F)=N1` (stereo not given): 1.48 µM; `Fc1cc(Cl)ccc1C1COC(c2c(F)cccc2F)=N1` (stereo not given): 0.00162 µM; `Fc1cccc(F)c1C1=NC(c2ccc(Cl)cc2Cl)CO1` (stereo not given): 0.151 µM. For `CCc1ccc(C2COC(c3c(F)cccc3F)=N2)cc1` (stereo not given), the LC50 is 0.0174 µM. Next, `COc1ccc(C2COC(c3c(F)cccc3F)=N2)cc1` (stereo not given): 17.4 µM; `CCOc1ccc(C2COC(c3c(F)cccc3F)=N2)cc1` (stereo not given): 0.0166 µM; `Fc1ccc(C2COC(c3c(F)cccc3F)=N2)cc1` (stereo not given): 1.82 µM. Consider `Fc1cccc(F)c1C1=NC(c2ccc(Cl)cc2)CO1` (stereo not given), for which the median lethal concentration (LC50) is 0.017 µM. Next, `CC(C)c1ccc(C2COC(c3c(F)cccc3F)=N2)cc1` (stereo not given): 0.0166 µM; `CCCCc1ccc(C2COC(c3c(F)cccc3F)=N2)cc1` (stereo not given): 0.00159 µM. With `CC(C)Cc1ccc(C2COC(c3c(F)cccc3F)=N2)cc1` (stereo not given), the LC50 is 0.00159 µM. Take `CC(C)(C)c1ccc(C2COC(c3c(F)cccc3F)=N2)cc1` (stereo not given): the LC50 was 0.00159 µM. Regarding `CCCCCCc1ccc(C2COC(c3c(F)cccc3F)=N2)cc1` (stereo not given), the LC50 was 0.00145 µM. The result for `CCCCCCCCc1ccc(C2COC(c3c(F)cccc3F)=N2)cc1` (stereo not given) reads 0.00135 µM; that for `CCCCCCCCCCc1ccc(C2COC(c3c(F)cccc3F)=N2)cc1` (stereo not given), 0.00126 µM. In the case of `CCCCCCCCCCCCc1ccc(C2COC(c3c(F)cccc3F)=N2)cc1` (stereo not given), the LC50 was 0.00118 µM. `CCCCCCCCCCCCCCCc1ccc(C2COC(c3c(F)cccc3F)=N2)cc1` (stereo not given): the LC50 is 0.0107 µM.

Consider `CC(C)Oc1ccc(C2COC(c3c(F)cccc3F)=N2)cc1` (stereo not given), for which the LC50 was 0.0158 µM. On to `CCCCOc1ccc(C2COC(c3c(F)cccc3F)=N2)cc1` (stereo not given), for which the LC50 was 0.00151 µM. For the compound `CCCCCCCCOc1ccc(C2COC(c3c(F)cccc3F)=N2)cc1` (stereo not given), the LC50 is 0.00129 µM. As for `CCCCCCCCCCOc1ccc(C2COC(c3c(F)cccc3F)=N2)cc1` (stereo not given), the LC50 was 0.0012 µM.

For the compound `CCCCCCCCCCCCCOc1ccc(C2COC(c3c(F)cccc3F)=N2)cc1` (stereo not given), the LC50 is 0.011 µM. Take `CCCCCCCCCCCCCCOc1ccc(C2COC(c3c(F)cccc3F)=N2)cc1` (stereo not given): the LC50 is 0.107 µM. The result for `CSc1ccc(C2COC(c3c(F)cccc3F)=N2)cc1` (stereo not given) reads 1.62 µM; that for `C[S+]([O-])c1ccc(C2COC(c3c(F)cccc3F)=N2)cc1` (stereo not given), 155 µM; that for `CS(=O)(=O)c1ccc(C2COC(c3c(F)cccc3F)=N2)cc1` (stereo not given), 1480 µM.

Consider `CC(C)Sc1ccc(C2COC(c3c(F)cccc3F)=N2)cc1` (stereo not given), for which the LC50 was 1.51 µM. As for `CCCCCCCCCSc1ccc(C2COC(c3c(F)cccc3F)=N2)cc1` (stereo not given), the LC50 was 0.12 µM. Next, `Fc1cccc(F)c1C1=NC(c2ccc(Br)cc2)CO1` (stereo not given): 0.0148 µM; `Fc1cccc(F)c1C1=NC(c2ccc(C(F)(F)F)cc2)CO1` (stereo not given): 0.151 µM. On to `Fc1cccc(F)c1C1=NC(c2ccc(OC(F)(F)F)cc2)CO1` (stereo not given), for which the LC50 was 0.0144 µM. `Fc1cccc(F)c1C1=NC(c2ccc(OCC(F)(F)F)cc2)CO1` (stereo not given): the LC50 is 0.00141 µM. Consider `Oc1ccc(C2COC(c3c(F)cccc3F)=N2)cc1` (stereo not given), for which the LC50 is 182 µM. For the compound `CN(C)c1ccc(C2COC(c3c(F)cccc3F)=N2)cc1` (stereo not given), the LC50 is 166 µM. For `C[Si](C)(C)c1ccc(C2COC(c3c(F)cccc3F)=N2)cc1` (stereo not given), the LC50 is 0.00151 µM. Turning to `Cc1ccc(C2COC(c3c(F)cccc3F)=N2)c(C)c1` (stereo not given), the LC50 is 174 µM.

Regarding `CCCCCCCCc1ccc(C2COC(c3c(F)cccc3F)=N2)c(C)c1` (stereo not given), the LC50 was 0.00129 µM. For `Cc1ccccc1C1COC(c2c(F)cccc2F)=N1` (stereo not given), the LC50 is 182 µM.

Take `CCc1ccccc1C1COC(c2c(F)cccc2F)=N1` (stereo not given): the LC50 is 17.4 µM.

Consider `COc1ccccc1C1COC(c2c(F)cccc2F)=N1` (stereo not given), for which the LC50 is 174 µM. Regarding `CCOc1ccccc1C1COC(c2c(F)cccc2F)=N1` (stereo not given), the LC50 was 166 µM. Consider `Fc1ccccc1C1COC(c2c(F)cccc2F)=N1` (stereo not given), for which the LC50 was 18.2 µM.

Turning to `Fc1cccc(F)c1C1=NC(c2ccccc2Cl)CO1` (stereo not given), the LC50 is 1.7 µM. In the case of `Cc1cccc(C2COC(c3c(F)cccc3F)=N2)c1` (stereo not given), the LC50 was 182 µM.

Regarding `CCc1cccc(C2COC(c3c(F)cccc3F)=N2)c1` (stereo not given), the LC50 was 174 µM. For `COc1cccc(C2COC(c3c(F)cccc3F)=N2)c1` (stereo not given), the LC50 is 17.4 µM. In the case of `Fc1cccc(C2COC(c3c(F)cccc3F)=N2)c1` (stereo not given), the LC50 was 18.2 µM.

As to `Fc1cccc(F)c1C1=NC(c2cccc(Cl)c2)CO1` (stereo not given), the LC50 is 17 µM. For `Cc1ccc(C2COC(c3c(F)cccc3F)=N2)cc1` (stereo not given), the LC50 was 1.82 µM. Consider `Fc1cccc(F)c1C1=NC(c2ccccc2)CO1` (stereo not given), for which the LC50 was 19.5 µM. Consider `CCOc1cc(C(C)(C)C)ccc1C1COC(c2c(F)cccc2F)=N1` (stereo not given) [ETOXAZOLE], for which the LC50 was 0.0138 µM.
